Measured values as given in ChEMBL document CHEMBL5512680, “Design, Synthesis, and Biological Evaluation of New 2,6,7-Substituted Purine Derivatives as Toll-like Receptor 7 Agonists for Intranasal Vaccine Adjuvants” (J Med Chem, 2024).
The source made the active and inactive calls. The calls are words filed in the database; no cut-off is given here.

Key:
Toll-like receptor 7 [1] = target: T1, Toll-like receptor 7 (Homo sapiens, UniProt Q9NYK1); test: Agonist activity at human TLR7 expressed in HEK-blue TLR cells measured for 18 to 19 hrs by SEAP reporter gene based assay; assay type: cell-based
T1 sequence (Q9NYK1 whole entry): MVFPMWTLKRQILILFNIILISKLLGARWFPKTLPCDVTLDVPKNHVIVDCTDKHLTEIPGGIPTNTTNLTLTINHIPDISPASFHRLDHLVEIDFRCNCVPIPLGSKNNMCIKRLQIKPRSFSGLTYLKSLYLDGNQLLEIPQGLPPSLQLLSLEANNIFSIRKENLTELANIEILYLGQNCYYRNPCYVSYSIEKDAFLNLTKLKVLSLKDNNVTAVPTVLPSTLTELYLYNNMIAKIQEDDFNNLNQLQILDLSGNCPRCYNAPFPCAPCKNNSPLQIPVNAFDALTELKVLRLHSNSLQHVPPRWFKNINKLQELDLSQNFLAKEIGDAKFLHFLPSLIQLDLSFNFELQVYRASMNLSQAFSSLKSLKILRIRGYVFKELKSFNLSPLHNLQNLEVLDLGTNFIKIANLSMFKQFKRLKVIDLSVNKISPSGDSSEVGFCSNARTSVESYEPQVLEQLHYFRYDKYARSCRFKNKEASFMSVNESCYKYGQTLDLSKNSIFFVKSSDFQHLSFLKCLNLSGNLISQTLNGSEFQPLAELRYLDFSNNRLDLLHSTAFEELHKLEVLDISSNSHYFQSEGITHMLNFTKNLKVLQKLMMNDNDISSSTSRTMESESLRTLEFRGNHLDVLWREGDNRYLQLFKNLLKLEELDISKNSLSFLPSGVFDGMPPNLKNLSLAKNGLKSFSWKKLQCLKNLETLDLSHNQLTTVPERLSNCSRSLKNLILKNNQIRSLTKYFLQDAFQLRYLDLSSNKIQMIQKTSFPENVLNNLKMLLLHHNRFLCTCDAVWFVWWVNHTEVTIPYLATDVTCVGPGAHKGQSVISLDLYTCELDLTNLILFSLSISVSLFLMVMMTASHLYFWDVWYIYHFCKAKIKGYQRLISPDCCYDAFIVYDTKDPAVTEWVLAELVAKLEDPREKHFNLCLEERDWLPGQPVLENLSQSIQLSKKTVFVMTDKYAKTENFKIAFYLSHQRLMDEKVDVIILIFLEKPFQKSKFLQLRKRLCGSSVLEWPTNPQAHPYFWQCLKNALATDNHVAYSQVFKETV

Toll-like receptor 7 [2] = target: T1, Toll-like receptor 7; test: Agonist activity at TLR7 (unknown origin)
Toll-like receptor 7 [3] = target: T2, Toll-like receptor 7 (Mus musculus, UniProt P58681); test: Agonist activity at mouse TLR7 expressed in HEK293 cells co-expressing NF-kappaB/AP-1 inducible SEAP reporter gene measured for 24 hrs by colorimetric analysis; assay type: cell-based
T2 sequence (P58681 whole entry): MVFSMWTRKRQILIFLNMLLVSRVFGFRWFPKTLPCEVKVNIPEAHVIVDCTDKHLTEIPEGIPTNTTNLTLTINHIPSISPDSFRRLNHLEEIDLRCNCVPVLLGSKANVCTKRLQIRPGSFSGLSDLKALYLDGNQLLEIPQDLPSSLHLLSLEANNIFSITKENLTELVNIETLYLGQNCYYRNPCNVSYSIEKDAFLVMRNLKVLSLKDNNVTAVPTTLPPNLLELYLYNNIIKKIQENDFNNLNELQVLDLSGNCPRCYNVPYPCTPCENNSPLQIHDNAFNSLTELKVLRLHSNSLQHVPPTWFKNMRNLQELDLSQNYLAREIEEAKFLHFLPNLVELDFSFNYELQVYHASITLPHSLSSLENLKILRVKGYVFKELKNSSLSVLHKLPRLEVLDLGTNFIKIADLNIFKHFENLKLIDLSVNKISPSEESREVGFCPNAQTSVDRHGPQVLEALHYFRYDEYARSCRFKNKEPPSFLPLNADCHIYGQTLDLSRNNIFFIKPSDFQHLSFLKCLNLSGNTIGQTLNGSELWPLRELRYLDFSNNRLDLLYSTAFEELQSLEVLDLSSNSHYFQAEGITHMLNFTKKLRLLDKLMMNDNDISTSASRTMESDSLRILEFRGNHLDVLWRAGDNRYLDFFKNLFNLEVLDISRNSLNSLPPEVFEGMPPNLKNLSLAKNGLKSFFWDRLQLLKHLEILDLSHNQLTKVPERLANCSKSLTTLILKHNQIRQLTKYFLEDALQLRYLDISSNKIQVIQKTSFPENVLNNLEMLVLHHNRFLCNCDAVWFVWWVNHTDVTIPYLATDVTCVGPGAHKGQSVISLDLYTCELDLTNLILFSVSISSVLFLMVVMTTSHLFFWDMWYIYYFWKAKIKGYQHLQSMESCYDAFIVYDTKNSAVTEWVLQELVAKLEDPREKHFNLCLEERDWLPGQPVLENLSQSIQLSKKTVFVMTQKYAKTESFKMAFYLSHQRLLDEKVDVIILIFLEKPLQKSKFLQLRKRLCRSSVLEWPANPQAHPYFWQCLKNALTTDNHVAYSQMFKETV

Mus musculus [4] = organism: Mus musculus; test: Immunostimulatory activity in BALB/c mouse vaccinated with inactivated PR8 (A/H1N1) assessed as decrease in body weight at 1 ug measured 3 weeks after immunization; assay type: functional, organism-based; conditions: dose 1.0 µg
[5] = In-vivo activation of mouse TLR7-mediated innate immune response in immunocompetent BALB/c mouse vaccinated with inactivated influenza A virus H1N1 A/Puerto Rico/8/1934 assessed as fold increase in IgG2a level in serum at 1 ug measured 3 weeks after immunization in presence of N6-butyl-7-(4-((diethylamino)methyl)-2-methoxybenzyl)-7H-purine-2,6-diamine by ELISA analysis; assay type: functional; conditions: dose 1 µg
[6] = target: T3, Toll-like receptor 7 (Mus musculus) (UniProt P58681); test: Agonist activity at mouse TLR7 expressed in HEK293 cells co-expressing NF-kappaB/AP-1 inducible SEAP reporter gene at 33 uM measured for 24 hrs by colorimetric analysis relative to control; assay type: cell-based
T3 sequence (whole entry): T2 sequence (P58681 whole entry)

Mus musculus [7] = test: In-vivo protection against influenza A virus PR8 (A/H1N1) infection in immunocompetent BALB/c mouse model assessed as animal survival rate at 1 ug pretreated with compound for 3 weeks followed by viral infection and measured daily for 2 weeks; assay type: functional; conditions: dose 1 µg; time 5 weeks
Mus musculus [8] = organism: Mus musculus; test: Immunostimulatory activity in BALB/c mouse vaccinated with inactivated PR8 (A/H1N1) assessed as animal survival at 0.1 ug measured 3 weeks after immunization; assay type: functional; conditions: dose 0.1 µg
Mus musculus [9] = organism: Mus musculus; test: Immunostimulatory activity in BALB/c mouse vaccinated with inactivated PR8 (A/H1N1) assessed as animal survival at 0.01 ug measured 3 weeks after immunization; assay type: functional; conditions: dose 0.01 µg
Mus musculus [10] = organism: Mus musculus; test: Immunostimulatory activity in BALB/c mouse vaccinated with inactivated PR8 (A/H1N1) assessed as animal survival at 1 ug measured 3 weeks after immunization; assay type: functional; conditions: dose 1 µg
Mus musculus [11] = test: In-vivo protection against influenza A virus PR8 (A/H1N1) infection in immunocompetent BALB/c mouse model assessed as animal survival rate at 0.01 ug pretreated with compound for 3 weeks followed by viral infection and measured daily for 2 weeks; assay type: functional; conditions: dose 0.01 µg; time 5 weeks
Toll-like receptor 8 = target: T4, Toll-like receptor 8 (Homo sapiens, UniProt Q9NR97); test: Agonist activity at human TLR8 expressed in HEK-blue TLR cells measured for 18 to 19 hrs by SEAP reporter gene based assay; assay type: cell-based
T4 sequence (Q9NR97 whole entry): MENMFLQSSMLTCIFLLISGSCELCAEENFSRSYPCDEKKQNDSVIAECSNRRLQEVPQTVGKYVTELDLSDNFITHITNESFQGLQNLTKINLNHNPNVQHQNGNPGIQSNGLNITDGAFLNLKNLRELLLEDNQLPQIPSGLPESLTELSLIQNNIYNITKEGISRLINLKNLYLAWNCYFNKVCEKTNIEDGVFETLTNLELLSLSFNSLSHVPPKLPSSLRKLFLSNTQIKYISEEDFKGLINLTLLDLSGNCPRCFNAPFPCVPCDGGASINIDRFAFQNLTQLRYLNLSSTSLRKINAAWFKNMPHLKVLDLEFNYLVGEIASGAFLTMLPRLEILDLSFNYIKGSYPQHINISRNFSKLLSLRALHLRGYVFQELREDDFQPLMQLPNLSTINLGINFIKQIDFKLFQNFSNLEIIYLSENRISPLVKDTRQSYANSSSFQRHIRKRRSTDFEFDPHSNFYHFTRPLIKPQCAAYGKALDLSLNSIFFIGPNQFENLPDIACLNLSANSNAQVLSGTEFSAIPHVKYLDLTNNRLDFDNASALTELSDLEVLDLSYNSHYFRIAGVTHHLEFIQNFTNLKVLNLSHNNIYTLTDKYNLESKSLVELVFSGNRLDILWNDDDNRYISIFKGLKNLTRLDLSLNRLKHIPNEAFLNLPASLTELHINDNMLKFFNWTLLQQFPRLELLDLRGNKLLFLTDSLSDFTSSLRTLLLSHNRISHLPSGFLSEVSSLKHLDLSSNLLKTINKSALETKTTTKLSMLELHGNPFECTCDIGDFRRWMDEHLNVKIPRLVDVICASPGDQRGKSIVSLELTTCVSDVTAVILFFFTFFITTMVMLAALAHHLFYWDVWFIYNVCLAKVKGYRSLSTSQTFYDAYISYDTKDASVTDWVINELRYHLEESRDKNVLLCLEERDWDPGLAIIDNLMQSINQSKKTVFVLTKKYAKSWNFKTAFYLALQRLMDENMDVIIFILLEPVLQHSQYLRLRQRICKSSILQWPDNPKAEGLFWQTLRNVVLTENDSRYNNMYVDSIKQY

CCCCNc1nc(N)nc2ncn(Cc3ccc(CN4CCCCC4)cc3OC)c12 showed an EC50 (Toll-like receptor 7 [1]) of 20.5 nM.
Work on CC(C)Cn1cnc2c(N)nc3ccccc3c21 [IMIQUIMOD] yielded an EC50 (Toll-like receptor 7 [2]) of 202 nM.
In the case of CCCCOc1nc(N)c2c(n1)N(Cc1cccc(CN3CCCC3)c1)CC(=O)N2 [VESATOLIMOD], the EC50 (Toll-like receptor 7 [3]) is reported as 4570 nM, the Activity (Mus musculus [4]) is reported as “Active” and the “fold change (FC)” value [5] is reported as 5.2. The Emax [6] was 0.657%.
Molecule CCCCNc1nc(N)nc2ncn(Cc3ccc(CN(CC)CC)cc3OC)c12 has an EC50 (Toll-like receptor 7 [3]) of 41.7 nM, a Survival (Mus musculus [7]) of 100% and a Survival (Mus musculus [8]) of 33.3%. For the same molecule, the Survival (Mus musculus [9]) was 16.7%, the Survival (Mus musculus [10]) was 66.7% and the EC50 (Toll-like receptor 7 [1]) was 17.5 nM. The Survival (Mus musculus [11]) was 16.7%.
With CCCCNc1nc(N)nc2ncn(Cc3ccc(CN4CCN(C)CC4)cc3OC)c12 the EC50 (Toll-like receptor 8; hek-blue tlr) was < 10000 nM and the EC50 (Toll-like receptor 7 [1]) was 24.7 nM.
For CCCCNc1nc(N)nc2ncn(Cc3ccc(CN(C)C)cc3OC)c12, the EC50 (Toll-like receptor 7 [1]) was 29.7 nM.
Molecule CCCCNc1nc(N)nc2ncn(Cc3ccc(CN4CCNCC4)cc3OC)c12 has an EC50 (Toll-like receptor 7 [1]) of 169 nM.
COc1cc(CO)ccc1Cn1cnc2nc(N)nc(NCc3ccccc3)c21 showed an EC50 (Toll-like receptor 7 [1]) of 2800 nM.
With CCCN(CCC)C(=O)C1=Cc2ccc(-c3ccc(C(=O)N4CCCC4)cc3)cc2N=C(N)C1 [MOTOLIMOD] the EC50 (Toll-like receptor 8) was 83.2 nM.
CCOCc1nc2c(N)nc3ccccc3c2n1CC(C)(C)C showed an EC50 (Toll-like receptor 7 [3]) of 299 nM.
